Read-outs that look alike come from different tables or passages of the source.
Experiments:
[1] = tested on: Leishmania amazonensis promastigotes expressing beta-lactamase; assay: microbe, parasite or virus in culture; format: cell-based; settings: Leishmania amazonensis, read-out: IC50 L. amaz.
[2] = tested on: Cryptococcus neoformans (Cn); assay: CLSI micro-dilution inhibition / MIC, Cryptococcus neoformans; format: cell-based; settings: running text b175, read-out: MIC against Cryptococcus neoformans
Procedure: C. neoformans (strain 1199s) was prepared following CLSI guidelines for the organism (CLSI, Reference Method for Broth Dilution Antifungal Susceptibility Testing of Yeasts, Approved Standard-Third. Edition, Clinical Laboratory Standards Institute, Wayne, Pa., 2008).
The A27-M2 CLSI standard micro-dilution method was used to screen an aurone library (MTSU Department of Chemistry) for inhibition of Cryptococcus neoformans (Cn). Each aurone was screened in triplicate. […] Toxicity assays were conducted on human THP1 macrophages and L6 rat fibroblasts.
The inhibition of Cn strains and C. gattii strains by Aurone 9051 (also referred to as “Aurone X”) was characterized in different medias (including RPMI 1640 (Standard), RPMI 1640+MOPS, Asparagine media, minimal media, or yeast extract peptone dextrose (YPD) media), against other serotypes and strains, and at different cell concentrations. Synergy of the compounds with current drugs was characterized, and a growth curve experiment was conducted.

T. rubrum = assay: Antifungal microdilution broth assay, T. rubrum; format: cell-based; settings: Trichophyton rubrum; Table 5
Text: A microdilution broth method (CLSI, Reference Method for Broth Dilution Antifungal Susceptibility Testing of Yeasts, Approved Standard-Third Edition, Clinical Laboratory Standards Institute, Wayne, Pa., 2008) was followed with some modifications for the testing of potential antifungal compounds Corning CellGro RPMI 1640 with glutamine, without bicarbonate buffer, with phenol red (RPMI; Sigma-Aldrich) was used as the base medium for testing. A 1 M solution of morpholinepropanesulfonic acid (MOPS; Sigma-Aldrich) was added to the RPMI to a final concentration of 0.165 M for buffering (RPMI-MOPS). This medium was adjusted to a pH of 7.0 with 10 M NaOH and filter sterilized.
PrestoBlue® (Life Technologies, Invitrogen, Carlsbad, Calif.), a resazurin-based cell viability reagent that, in metabolically active cells, is reduced from blue, non-fluorescent resazurin, to red, fluorescent resorufin, was used to assess inhibition of yeast growth by the aurones. Reduction of the compound from resazurin to resorufin is proportional to the number of metabolically active cells and can be quantified by measuring relative fluorescence units (RFUs). […]
IC50 determination was calculated using GraphPad Prism version 7.01 for Windows (GraphPad Software, Inc., La Jolla, Calif.) from the RFUs at dilution points. […]

[3] = tested on: Trypanosoma cruzi Tulahuen cells expressing beta-galactosidase; assay: T. cruzi intracellular assay (beta-galactosidase, L6 host cells); settings: Trypanosoma cruzi, TULAHUEN, intracellular assay
Procedure: Trypanosoma cruzi Tulahuen cells expressing beta-galactosidase (Buckner et al., Antimicrob. Agents Chemother. 40 (1996) 2592-2597) were cultured using the L6 cell line as a host cell. Adherent L6 cultures were infected with freshly burst T. cruzi trypomastigotes. Approximately 4-6 days later freshly burst trypomastigotes were collected and used to maintain cultures For assays, trypomastigotes were centrifuged to a loose pellet and incubated for 3 hours to allow the trypomastigote forms to swim out of the pellet. Cells were adjusted for addition to intracellular or extracellular assays. […] For intracellular assays, cells were added to adherent L6 cells using an infection ratio of 1:1 and immediately treated with compounds. At 96 hours incubations, a solution containing chlorophenol-red-B-D-beta-galactopyranosidase (Sigma) and a lysis agent were added. After an additional 2 hour incubation, a spectrophotometer was used to quantify the resulting color change (or lack thereof) which was used to calculate inhibition.
The percentage of cell inhibition was calculated using the formula: Percent Inhibition=1−((Treated Sample value−Medium only value)/(Untreated value−Medium only value))×100. Results are expressed as the mean of two or more independent trials.

[4] = tested on: Trypanosoma brucei brucei 427 cells; assay: T. brucei culture and assay (PrestoBlue); format: cell-based; settings: Trypanosoma brucei; Table 1; mean of 2(+) independent trials; read-out: IC50 T. brucei
IL-8 = assay: Cytokine response by ELISA, IL-8; format: cell-based, human; settings: LPS-stimulated THP-1, ELISA
Procedure: (§1) Dexamethasone is a synthetic glucocorticoid that suppresses LPS-induced pro-inflammatory cytokine expression and was used as a control (Abraham, Lawrence et al. 2006). Supernatants were collected for human cytokine ELISAs and the manufacturer's protocol was followed to assess the cytokine response. Cells remaining after the supernatant collection were tested for relative viability by Alamar Blue cytotoxicity assay as previously described.

IKKβ, IκBα, p65 [5] = assay: Western blot, IKK / IκBα / p65 phosphorylation, THP-1; settings: 12.5, 25, 50 μM, LPS 15 min, dose-dependent
Procedure: (§2) U0126 is a compound that inhibits MEK1/2 and was used as positive control for ERK phosphorylation inhibition (Hotokezaka, Sakai et al. 2002). Cells were lysed with radio-immunoprecipitation assay (RIPA) lysis buffer that contained a protease and phosphatase inhibitor cocktail. Cell lysates were then tested for protein concentration using a BCA protein assay and diluted with RIPA lysis buffer to normalize protein concentration in all samples. Lysates were mixed with sample loading buffer containing bromophenol blue, glycerol, SDS, and 2-mercaptoethanol. The separated proteins were then transferred onto a nitrocellulose membrane and blocked with 5% BSA in IX Tris-buffered saline with 0.1% Tween-20 for 1 h. The blots were incubated with primary antibodies at 4° C. overnight followed by incubation with HRP-conjugated secondary antibodies for 2 h at 22° C. The membranes were developed by addition of ECL substrate and images were collected with a ChemiDoc XRS+ system chemiluminescence imager (Bio-Rad, Hercules, Calif., USA). Western blot band intensity was quantified using Image Lab software (Bio-Rad, Hercules, Calif., USA). […]

TNFα = assay: Cytokine response by ELISA, TNFα; format: cell-based, human
Procedure: as §1

IKKβ, IκBα, p65 [6] = assay: Western blot, IKK / IκBα / p65 phosphorylation, RAW 264.7; settings: 12.5, 25, 50 μM, LPS 15 min, dose-dependent
Procedure: as §2

iNOS = assay: Western blot, iNOS expression, RAW 264.7; settings: LPS-stimulated RAW264.7, 24 h
Procedure: as §2

SMILES | IC50 [1] [µM] | MIC [2] [µM] | IC50 (T. rubrum) [µM] | IC50 ([3]; read-out: IC50 T. cruzi, Table 1, mean of 2(+) trials (^c one trial)) [µM] | IC50 ([3]; read-out: IC50 T. cruzi, Table 2, mean of 2(+) independent trials) [µM] | IC50 [4] [µM] | reduction of IL-8 expression (IL-8) [%] | phosphorylation of IKKβ, IκBα and p65 (IKKβ, IκBα, p65 [5]) | inhibition at 20 µM (TNFα; Homo sapiens, LPS-stimulated THP-1 cells, 20 μM, mean ± SD, read-out: Average % TNF-α Inhibition) [%] | suppression of TNFα expression (TNFα; LPS-stimulated THP-1, ELISA, FIG. 9A, concentration not printed with the value (20-80 μM tested)) [%] | phosphorylation of IKKβ, IκBα and p65 (IKKβ, IκBα, p65 [6]) | reduction in iNOS levels (iNOS; 50 μM) [%] | reduction in iNOS levels (iNOS; 100 μM) [%]
COc1ccc(/C=C2\Oc3c(ccc(O)c3O)C2=O)cc1O [Aurone 1009, (Z)-6,7-dihydroxy-2-(3-hydroxy-4-methoxybenzylidene)benzofuran-3(2H)-one] | 9.63 | 30 | 49 | > 50 | > 50 | 18.8 |  |  |  |  |  |  | 
O=C1/C(=C/c2ccc(CO)o2)Oc2ccccc21 [aurone 1] |  |  |  |  |  |  | 71 | suppress the phosphorylation of all three proteins | 25.3 ± 6.1 | 93.8 | suppress the phosphorylation of all three proteins | 31.7 | 57.5

From patent US20200399238A1, “THERAPEUTIC AURONES” (MIDDLE TENNESSEE STATE UNIVERSITY, priority 2016, published 2020)
